Measurements from the NIST ThermoML archive (doi:10.1021/acs.jced.8b00524).
± gives the expanded uncertainty stated by the source.

Assay: xn = mol fraction of the nth substance listed
Conditions: 100 kPa, Liquid; for viscosity: Concentric cylinders viscometry; for mass density: Vibrating tube method

CCCCCCCCCCO [decan-1-ol] + CCCCOC(C)=O
Conditions | mass density [kg/m3] | viscosity [mPa·s]
293.15 K, x2 = 0 | 829.5 ± 10 | 14.42 ± 0.72
293.15 K, x2 = 0.0809 | 832 ± 10 | 12.8 ± 0.64
293.15 K, x2 = 0.1599 | 834.6 ± 10 | 11.41 ± 0.57
293.15 K, x2 = 0.2401 | 837.6 ± 10 | 10.07 ± 0.51
293.15 K, x2 = 0.3499 | 842 ± 10 | 8.41 ± 0.42
293.15 K, x2 = 0.4401 | 846 ± 10 | 7.18 ± 0.36
293.15 K, x2 = 0.5598 | 851.9 ± 10 | 5.67 ± 0.29
293.15 K, x2 = 0.6499 | 856.8 ± 10 | 4.62 ± 0.23
293.15 K, x2 = 0.7401 | 862.3 ± 10 | 3.6 ± 0.18
293.15 K, x2 = 0.8499 | 869.6 ± 10 | 2.38 ± 0.12
293.15 K, x2 = 0.9399 | 876.2 ± 10 | 1.38 ± 0.07
298.15 K, x2 = 0 | 826.1 ± 10 | 11.8 ± 0.59
298.15 K, x2 = 0.0809 | 828.4 ± 10 | 10.44 ± 0.52
298.15 K, x2 = 0.1599 | 830.9 ± 10 | 9.29 ± 0.47
298.15 K, x2 = 0.2401 | 833.7 ± 10 | 8.2 ± 0.41
298.15 K, x2 = 0.3499 | 838 ± 10 | 6.86 ± 0.35
298.15 K, x2 = 0.4401 | 841.8 ± 10 | 5.87 ± 0.3
298.15 K, x2 = 0.5598 | 847.5 ± 10 | 4.61 ± 0.23
298.15 K, x2 = 0.6499 | 852.3 ± 10 | 3.75 ± 0.19
298.15 K, x2 = 0.7401 | 857.5 ± 10 | 2.94 ± 0.15
298.15 K, x2 = 0.8499 | 864.7 ± 10 | 1.97 ± 0.1
298.15 K, x2 = 0.9399 | 871.1 ± 10 | 1.19 ± 0.06
303.15 K, x2 = 0 | 822.7 ± 10 | 9.76 ± 0.49
303.15 K, x2 = 0.0809 | 824.8 ± 10 | 8.61 ± 0.43
303.15 K, x2 = 0.1599 | 827.1 ± 10 | 7.62 ± 0.38
303.15 K, x2 = 0.2401 | 829.7 ± 10 | 6.71 ± 0.34
303.15 K, x2 = 0.3499 | 833.8 ± 10 | 5.59 ± 0.28
303.15 K, x2 = 0.4401 | 837.5 ± 10 | 4.78 ± 0.24
303.15 K, x2 = 0.5598 | 843 ± 10 | 3.75 ± 0.19
303.15 K, x2 = 0.6499 | 847.6 ± 10 | 3.06 ± 0.15
303.15 K, x2 = 0.7401 | 852.7 ± 10 | 2.4 ± 0.12
303.15 K, x2 = 0.8499 | 859.6 ± 10 | 1.64 ± 0.08
303.15 K, x2 = 0.9399 | 866 ± 10 | 1.04 ± 0.05
308.15 K, x2 = 0 | 819.3 ± 10 | 8.14 ± 0.41
308.15 K, x2 = 0.0809 | 821.2 ± 10 | 7.15 ± 0.36
308.15 K, x2 = 0.1599 | 823.4 ± 10 | 6.31 ± 0.32
308.15 K, x2 = 0.2401 | 825.8 ± 10 | 5.54 ± 0.28
308.15 K, x2 = 0.3499 | 829.6 ± 10 | 4.61 ± 0.23
308.15 K, x2 = 0.4401 | 833.1 ± 10 | 3.93 ± 0.2
308.15 K, x2 = 0.5598 | 838.5 ± 10 | 3.11 ± 0.16
308.15 K, x2 = 0.6499 | 842.9 ± 10 | 2.54 ± 0.13
308.15 K, x2 = 0.7401 | 847.9 ± 10 | 2.02 ± 0.1
308.15 K, x2 = 0.8499 | 854.6 ± 10 | 1.4 ± 0.07
308.15 K, x2 = 0.9399 | 860.8 ± 10 | 0.9 ± 0.05
313.15 K, x2 = 0 | 815.8 ± 10 | 6.84 ± 0.34
313.15 K, x2 = 0.0809 | 817.3 ± 10 | 5.99 ± 0.3
313.15 K, x2 = 0.1599 | 819.2 ± 10 | 5.27 ± 0.27
313.15 K, x2 = 0.2401 | 821.4 ± 10 | 4.62 ± 0.23
313.15 K, x2 = 0.3499 | 824.9 ± 10 | 3.83 ± 0.19
313.15 K, x2 = 0.4401 | 828.2 ± 10 | 3.28 ± 0.17
313.15 K, x2 = 0.5598 | 833.2 ± 10 | 2.59 ± 0.13
313.15 K, x2 = 0.6499 | 837.5 ± 10 | 2.15 ± 0.11
313.15 K, x2 = 0.7401 | 842.4 ± 10 | 1.71 ± 0.09
313.15 K, x2 = 0.8499 | 849.1 ± 10 | 1.22 ± 0.06
313.15 K, x2 = 0.9399 | 855.3 ± 10 | 0.81 ± 0.04
318.15 K, x2 = 0 | 812.4 ± 10 | 5.8 ± 0.29
318.15 K, x2 = 0.0809 | 813.7 ± 10 | 5.06 ± 0.25
318.15 K, x2 = 0.1599 | 815.3 ± 10 | 4.45 ± 0.22
318.15 K, x2 = 0.2401 | 817.2 ± 10 | 3.89 ± 0.2
318.15 K, x2 = 0.3499 | 820.3 ± 10 | 3.22 ± 0.16
318.15 K, x2 = 0.4401 | 823.4 ± 10 | 2.75 ± 0.14
318.15 K, x2 = 0.5598 | 828.2 ± 10 | 2.18 ± 0.11
318.15 K, x2 = 0.6499 | 832.4 ± 10 | 1.8 ± 0.09
318.15 K, x2 = 0.7401 | 837.2 ± 10 | 1.45 ± 0.07
318.15 K, x2 = 0.8499 | 843.9 ± 10 | 1.05 ± 0.05
318.15 K, x2 = 0.9399 | 850.2 ± 10 | 0.73 ± 0.04
323.15 K, x2 = 0 | 808.9 ± 10 | 4.96 ± 0.25
323.15 K, x2 = 0.0809 | 809.9 ± 10 | 4.31 ± 0.22
323.15 K, x2 = 0.1599 | 811.3 ± 10 | 3.79 ± 0.19
323.15 K, x2 = 0.2401 | 813 ± 10 | 3.3 ± 0.17
323.15 K, x2 = 0.3499 | 815.9 ± 10 | 2.72 ± 0.14
323.15 K, x2 = 0.4401 | 818.8 ± 10 | 2.32 ± 0.12
323.15 K, x2 = 0.5598 | 823.4 ± 10 | 1.84 ± 0.09
323.15 K, x2 = 0.6499 | 827.3 ± 10 | 1.53 ± 0.08
323.15 K, x2 = 0.7401 | 832.1 ± 10 | 1.25 ± 0.06
323.15 K, x2 = 0.8499 | 838.7 ± 10 | 0.92 ± 0.05
323.15 K, x2 = 0.9399 | 844.9 ± 10 | 0.66 ± 0.03
